Biological target: T1, HIV-integrase (Human immunodeficiency virus type 1 group M subtype B, UniProt P04585)
T1 construct: 0.26 ng of recombinant integrase was incubated with the beads
Assay: HIV-integrase inhibition activity (SPA bead strand-transfer assay)
Format: biochemical
Conditions: 50 μM compound; recombinant integrase
Experimental: For each reaction, 5 pmole of biotin labled substrate DNA was bound to 100 ug of Streptavidin coated PVT SPA beads (Amersham Pharmacia Biotech). 0.26 ng of recombinant integrase was incubated with the beads for 90 min at 37° C. Unbound enzyme was removed by washing the complex followed by addition of inhibitors and 0.1 fmol of P33 labeled target DNA. Reaction was stopped by adding EDTA to a final concentration of 10 mM. Samples were counted in TopCountNXT (Packard) and the CPM was used as a measure of integration. Reaction condition was as described in A. Engelman and R. Craigie, J. Virol. 69, 5908-5911 (1995). The sequences of substrate and target DNA were described in Nucleic Acid Research 22, 1121-1122 (1994). Compounds of this invention tested in this assay have IC50's of approximately 0.01 to 50 μM
In the case of `O=C(O)/C(O)=C/C(=O)N(Cc1ccc(F)cc1)OCC(=O)N(C1CCCCC1)C1CCCCC1` [Compound 76], the inhibition at 50 µM is reported as > 99%.
In the case of `CN(CCCC(c1ccc(Cl)cc1)c1ccc(Cl)cc1)C(=O)CON(Cc1ccc(F)cc1)C(=O)/C=C(\O)C(=O)O` [Compound 71], the inhibition at 50 µM is reported as > 99%.
Work on `CON(Cc1ccc(F)cc1F)C(=O)/C=C(\O)C(=O)O` [Compound 17, 3-[(2,4-Difluoro-benzyl)-methoxy-carbamoyl]-2-hydroxy-acrylic acid] yielded an inhibition at 50 µM of 99.9%.
In the case of `CC(C)(C)OC(=O)CON(Cc1ccc(F)cc1)C(=O)/C=C(\O)C(=O)O` [Compound 20, 3-[tert-Butoxycarbonylmethoxy-(4-fluoro-benzyl)-carbamoyl]-2-hydroxy-acrylic acid], the inhibition at 50 µM is reported as 99.9%.
In the case of `O=C(CON(Cc1ccc(F)cc1)C(=O)/C=C(\O)C(=O)O)NCc1ccc(C(F)(F)F)cc1` [Compound 69], the inhibition at 50 µM is reported as > 99%.
For `CN(CCCN1c2ccccc2CCc2ccccc21)C(=O)CON(Cc1ccc(F)cc1)C(=O)/C=C(\O)C(=O)O` [Compound 63], the inhibition at 50 µM was > 99%.
`COC(=O)c1ccc(CN(OC)C(=O)C=C(O)C(=O)O)cc1` [Compound 18, 4-{[(3-Carboxy-3-hydroxy-acryloyl)-methoxy-amino]-methyl}-benzoic acid methyl ester] showed an inhibition at 50 µM of 96%.
Work on `O=C(O)CON(Cc1ccc(F)cc1)C(=O)/C=C(\O)C(=O)O` [Compound 24, 3-[Carboxymethoxy-(4-fluoro-benzyl)-carbamoyl]-2-hydroxy-acrylic acid] yielded an inhibition at 50 µM of 99.9%.
`CON(CCc1ccc(F)cc1)C(=O)/C=C(\O)C(=O)O` [Compound 9, 3-{[2-(4-Fluoro-phenyl)-ethyl]-methoxy-carbamoyl}-2-hydroxy-acrylic acid] gave an inhibition at 50 µM of 99.9%.
In the case of `O=C(O)/C(O)=C/C(=O)N(Cc1ccccc1)OCc1ccccc1` [Compound 2, 3-(Benzyl-benzyloxy-carbamoyl)-2-hydroxy-acrylic acid], the inhibition at 50 µM is reported as 99.9%.
For `CC(C)CN(CC(C)C)C(=O)CON(Cc1ccc(F)cc1)C(=O)/C=C(\O)C(=O)O` [Compound 74], the inhibition at 50 µM was > 99%.
With `CON(Cc1ccc(F)c(C#N)c1)C(=O)/C=C(\O)C(=O)O` [Compound 19, 3-[(3-Cyano-4-fluoro-benzyl)-methoxy-carbamoyl]-2-hydroxy-acrylic acid] the inhibition at 50 µM was 99.9%.
`CON(Cc1ccc(F)c(F)c1)C(=O)/C=C(\O)C(=O)O` [Compound 11, 3-[(3,4-Difluoro-benzyl)-methoxy-carbamoyl]-2-hydroxy-acrylic acid] showed an inhibition at 50 µM of 99.9%.
With `O=C(CON(Cc1ccc(F)cc1)C(=O)/C=C(\O)C(=O)O)NCc1ccc(Cl)cc1` [Compound 66] the inhibition at 50 µM was > 99%.
With `CCCN(CC1CC1)C(=O)CON(Cc1ccc(F)cc1)C(=O)/C=C(\O)C(=O)O` [Compound 73] the inhibition at 50 µM was > 99%.
For `CC(NC(=O)CON(Cc1ccc(F)cc1)C(=O)/C=C(\O)C(=O)O)c1ccc(F)cc1` (stereo not shown) [Compound 70], the inhibition at 50 µM was > 99%.
With `O=C(O)/C(O)=C/C(=O)N(Cc1ccc(F)cc1)OCC(=O)N1CCOCC1` [Compound 62] the inhibition at 50 µM was > 99%.
In the case of `CCCCCCN(CCCCCC)C(=O)CON(Cc1ccc(F)cc1)C(=O)/C=C(\O)C(=O)O` [Compound 75], the inhibition at 50 µM is reported as > 99%.
In the case of `Cc1ccc(CNC(=O)CON(Cc2ccc(F)cc2)C(=O)/C=C(\O)C(=O)O)cc1` [Compound 68], the inhibition at 50 µM is reported as > 99%.
With `CON(Cc1ccccc1F)C(=O)/C=C(\O)C(=O)O` [Compound 8, 3-[(2-Fluoro-benzyl)-methoxy-carbamoyl]-2-hydroxy-acrylic acid] the inhibition at 50 µM was 99.9%.
For `CC(NC(=O)CON(Cc1ccc(F)cc1)C(=O)/C=C(\O)C(=O)O)c1ccccc1` (stereo not shown) [Compound 64], the inhibition at 50 µM was > 99%.
With `CON(Cc1cccc(F)c1)C(=O)/C=C(\O)C(=O)O` [Compound 7, 3[(3-Fluoro-benzyl)-methoxy-carbamoyl]-2-hydroxy-acrylic acid] the inhibition at 50 µM was 99.9%.
For `CC(C)CNC(=O)CON(Cc1ccc(F)cc1)C(=O)/C=C(\O)C(=O)O` [Compound 79], the inhibition at 50 µM was > 99%.
In the case of `CON(Cc1ccccc1)C(=O)/C=C(\O)C(=O)O` [Compound 1, 3-(Benzyl-methoxy-carbamoyl)-2-hydroxy-acrylic acid], the inhibition at 50 µM is reported as 99%.
In the case of `CCCCN(Cc1ccccc1)C(=O)CON(Cc1ccc(F)cc1)C(=O)/C=C(\O)C(=O)O` [Compound 72], the inhibition at 50 µM is reported as > 99%.
With `CC(=O)N1CCCN(C(=O)CON(Cc2ccc(F)cc2)C(=O)/C=C(\O)C(=O)O)CC1` [Compound 77] the inhibition at 50 µM was > 99%.
With `O=C(O)/C(O)=C/C(=O)N(Cc1ccc(Cl)c(Cl)c1)OCc1ccccc1` [Compound 6, 3-[Benzyloxy-(3,4-dichloro-benzyl)-carbamoyl]-2-hydroxy-acrylic acid] the inhibition at 50 µM was 99.9%.
For `O=C(CON(Cc1ccc(F)cc1)C(=O)/C=C(\O)C(=O)O)NCc1ccc(F)cc1` [Compound 65], the inhibition at 50 µM was > 99%.
Work on `CON(Cc1ccc(Cl)cc1)C(=O)/C=C(\O)C(=O)O` [Compound 10, 3-[(4-Chloro-benzyl)-methoxy-carbamoyl]-2-hydroxy-acrylic acid] yielded an inhibition at 50 µM of 99.9%.
With `COc1ccc(CNC(=O)CON(Cc2ccc(F)cc2)C(=O)/C=C(\O)C(=O)O)cc1` [Compound 67] the inhibition at 50 µM was > 99%.
With `CCNC(=O)CON(Cc1ccc(F)cc1)C(=O)/C=C(\O)C(=O)O` [Compound 78] the inhibition at 50 µM was > 99%.

System: not given
Assay: not given
Conditions: not given
Compound `CC(C)(C)OC(=O)CON(Cc1ccc(Cl)c(Cl)c1)C(=O)/C=C1\OC(C)(C)OC1=O` has a melting point of 127 to 129 °C.
Work on `COC(=O)c1ccc(CN(OC)C(=O)/C=C2\OC(C)(C)OC2=O)cc1` yielded a melting point of 120 °C.
`CON(Cc1ccc(F)cc1F)C(=O)/C=C(\O)C(=O)O` [Compound 17, 3-[(2,4-Difluoro-benzyl)-methoxy-carbamoyl]-2-hydroxy-acrylic acid] gave a melting point of 131 to 132 °C.
Work on `CON(Cc1ccccc1)C(=O)/C=C1\OC(C)(C)OC1=O` yielded a melting point of 109 to 110 °C.
For `CON(Cc1cccc(F)c1)C(=O)/C=C1\OC(C)(C)OC1=O`, the melting point was 110 to 111 °C.
In the case of `CC(C)(C)OC(=O)CON(Cc1ccc(F)cc1)C(=O)/C=C(\O)C(=O)O` [Compound 20, 3-[tert-Butoxycarbonylmethoxy-(4-fluoro-benzyl)-carbamoyl]-2-hydroxy-acrylic acid], the melting point is reported as 73 °C (dec.).
`CON(Cc1ccc(Cl)cc1)C(=O)/C=C1\OC(C)(C)OC1=O` showed a melting point of 129 to 130 °C.
With `COC(=O)c1ccc(CN(OC)C(=O)C=C(O)C(=O)O)cc1` [Compound 18, 4-{[(3-Carboxy-3-hydroxy-acryloyl)-methoxy-amino]-methyl}-benzoic acid methyl ester] the melting point was 110 to 111 °C.
With `O=C(O)CON(Cc1ccc(F)cc1)C(=O)/C=C(\O)C(=O)O` [Compound 24, 3-[Carboxymethoxy-(4-fluoro-benzyl)-carbamoyl]-2-hydroxy-acrylic acid] the melting point was 135 to 138 °C.
In the case of `CON(CCCc1ccc(Cl)c(Cl)c1)C(=O)/C=C(\O)C(=O)O`, the melting point is reported as 106 °C (dec.).
With `CON(CCc1ccc(F)cc1)C(=O)/C=C(\O)C(=O)O` [Compound 9, 3-{[2-(4-Fluoro-phenyl)-ethyl]-methoxy-carbamoyl}-2-hydroxy-acrylic acid] the melting point was 107 to 108 °C (dec.).
`CON(Cc1ccccc1F)C(=O)/C=C1\OC(C)(C)OC1=O` showed a melting point of 109 to 111 °C.
`CON(Cc1ccc(F)cc1Cl)C(=O)/C=C(\O)C(=O)O` gave a melting point of 140 to 143 °C.
Work on `CN(C)CCON(Cc1ccc(F)cc1)C(=O)/C=C1\OC(C)(C)OC1=O` yielded a melting point of 95 to 96 °C.
In the case of `CON(Cc1ccc(NC(C)=O)cc1)C(=O)/C=C1\OC(C)(C)OC1=O`, the melting point is reported as 212 to 215 °C (dec.).
In the case of `CCON(Cc1ccc(F)cc1)C(=O)/C=C1\OC(C)(C)OC1=O`, the melting point is reported as 95 to 96 °C.
Compound `CON(Cc1ccc(C)c(F)c1)C(=O)/C=C1\OC(C)(C)OC1=O` has a melting point of 131 °C.
`CON(Cc1ccc(F)c(C)c1)C(=O)/C=C1\OC(C)(C)OC1=O` showed a melting point of 107 to 108 °C.
In the case of `CON(Cc1ccc(C(=O)O)cc1)C(=O)/C=C(\O)C(=O)O`, the melting point is reported as 123 to 125 °C.
With `CON(Cc1ccccc1OC(C)C)C(=O)/C=C1\OC(C)(C)OC1=O` the melting point was 103 °C.
With `CON(Cc1ccc(F)c(C#N)c1)C(=O)/C=C(\O)C(=O)O` [Compound 19, 3-[(3-Cyano-4-fluoro-benzyl)-methoxy-carbamoyl]-2-hydroxy-acrylic acid] the melting point was 144 to 151 °C (dec.).
Work on `CON(Cc1ccc(C#N)cc1)C(=O)/C=C1\OC(C)(C)OC1=O` yielded a melting point of 148 to 149 °C.
Compound `CC1(C)OC(=O)/C(=C/C(=O)N(Cc2ccccc2)OCc2ccccc2)O1` has a melting point of 107 to 108 °C.
`CON(Cc1ccc(F)c(F)c1)C(=O)/C=C(\O)C(=O)O` [Compound 11, 3-[(3,4-Difluoro-benzyl)-methoxy-carbamoyl]-2-hydroxy-acrylic acid] showed a melting point of 127 to 129 °C.
Work on `CON(Cc1ccccc1C)C(=O)/C=C1\OC(C)(C)OC1=O` yielded a melting point of 96 to 97 °C.
For `CON(Cc1ccc(F)c(Br)c1)C(=O)/C=C1\OC(C)(C)OC1=O`, the melting point was 117 to 119 °C.
For `CON(Cc1ccc(C)cc1)C(=O)/C=C1\OC(C)(C)OC1=O`, the melting point was 108 to 110 °C.
In the case of `CON(Cc1ccc(C)c(F)c1)C(=O)/C=C(\O)C(=O)O`, the melting point is reported as 99 °C.
Compound `CON(CCCc1ccc(Cl)c(Cl)c1)C(=O)/C=C1\OC(C)(C)OC1=O` has a melting point of 105 to 106 °C.
Compound `CON(CCCc1ccc(F)cc1)C(=O)/C=C1\OC(C)(C)OC1=O` has a melting point of 90 to 91 °C.
Compound `CON(Cc1ccc(F)cc1C(F)(F)F)C(=O)/C=C1\OC(C)(C)OC1=O` has a melting point of 129 to 130 °C.
Compound `CON(CCc1ccc(F)cc1)C(=O)/C=C1\OC(C)(C)OC1=O` has a melting point of 106 to 107 °C.
`CON(Cc1ccc(C(F)(F)F)cc1)C(=O)/C=C1\OC(C)(C)OC1=O` gave a melting point of 110 °C.
Compound `CC1(C)OC(=O)/C(=C/C(=O)N(Cc2ccc(Cl)c(Cl)c2)OCc2ccccc2)O1` has a melting point of 113 to 116 °C.
`CC(C)(C)OC(=O)CON(Cc1ccc(F)cc1)C(=O)/C=C1\OC(C)(C)OC1=O` showed a melting point of 119 to 120 °C.
`CON(Cc1ccc(F)c(C)c1)C(=O)/C=C(\O)C(=O)O` showed a melting point of 120 to 122 °C.
With `CON(CCCc1ccc(F)cc1)C(=O)/C=C(\O)C(=O)O` the melting point was 86 °C (dec.).
`CC(C)CON(Cc1ccc(F)cc1)C(=O)/C=C1\OC(C)(C)OC1=O` showed a melting point of 105 to 106 °C.
Compound `CON(Cc1ccc(C(=O)OC(C)(C)C)cc1)C(=O)/C=C1\OC(C)(C)OC1=O` has a melting point of 137 to 138 °C.
In the case of `CON(Cc1ccc(C)cc1)C(=O)/C=C(\O)C(=O)O`, the melting point is reported as 108 to 111 °C (dec.).
Work on `CON(Cc1ccc(F)cc1F)C(=O)/C=C1\OC(C)(C)OC1=O` yielded a melting point of 120 to 125 °C.
`CON(Cc1ccc(C(=O)O)cc1)C(=O)/C=C1\OC(C)(C)OC1=O` showed a melting point of 217 to 219 °C.
With `COc1ccc(CN(OC)C(=O)/C=C2\OC(C)(C)OC2=O)cc1` the melting point was 113 to 114 °C.
Work on `CON(Cc1ccc(C(F)(F)F)cc1)C(=O)/C=C(\O)C(=O)O` yielded a melting point of 108 to 110 °C.
Work on `CON(Cc1ccc(F)cc1Cl)C(=O)/C=C1\OC(C)(C)OC1=O` yielded a melting point of 127 to 128 °C.

Source: US6777440B2, “HIV integrase inhibitors” (Bristol-Myers Squibb Company, priority 2001, dated 2004)
